Data: ChEMBL document CHEMBL4130580, “Bibenzyl-Based Meroterpenoid Enantiomers from the Chinese Liverwort Radula sumatrana” (J Nat Prod, 2017)
pIC50: −log10 of the molar value.

Experiments:
MCF7 = test: Cytotoxicity against human MCF7 cells assessed as reduction in cell viability by MTT assay
SMMC-7721 = test: Cytotoxicity against human SMMC7721 cells assessed as reduction in cell viability by MTT assay
PC-3 = test: Cytotoxicity against human PC3 cells assessed as reduction in cell viability by MTT assay

SMILES: C=C(C)C1CCC2(C)Oc3cc(O)cc(CCc4ccccc4)c3C1C2O (racemic)
- pIC50 (MCF7): 4.42
- pIC50 (SMMC-7721): < 4.40
- pIC50 (PC-3): < 4.40

SMILES: CC12CCC3C1C(c1c(CCc4ccccc4)cc(O)cc1O2)C3(C)C (centres undefined)
- pIC50 (MCF7): 4.85
- pIC50 (SMMC-7721): 4.84
- pIC50 (PC-3): 4.71

SMILES: CC12CCc3cc(CCc4ccccc4)cc(O)c3C1C2 (racemic)
- pIC50 (MCF7): 4.61
- pIC50 (SMMC-7721): 4.47
- pIC50 (PC-3): < 4.40
